Measurements taken from US20230339915A1 (Vertex Pharmaceuticals Incorporated, priority 2020, published 2023).

Tests used:
[1] = molecular target: NL20 human bronchial epithelial cells expressing human Z-AAT (Homo sapiens (Human), UniProt P01009, E366K); assay: AAT Function Assay (MSD Assay NL20-SI Cell Line); assay type: cell-based; conditions: functionally active AAT (AAT-hNE complex, MSD) in supernatant of NL20 cells expressing human Z-AAT; read-out: NL20 Functional EC50
Method in brief: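 Secreted active Z-AAT was measured by MSD electrochemiluminescence: supernatants (45-fold total dilution) were incubated with human neutrophil elastase to form AAT–elastase complexes, captured by goat anti-AAT and detected with labelled anti-elastase. Cells were doxycycline-induced (0.1 μM) NL20 bronchial cells treated with compound overnight; M-AAT standard curve.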

[2] = molecular target: purified Z-AAT protein from human plasma (Homo sapiens (Human), UniProt P01009, E366K); assay: Biochemical Assay (Z-AAT Elastase Activity Assay); conditions: purified Z-AAT pre-incubated with compound 1 hour, then human neutrophil elastase and fluorescent substrate
Method in brief: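 Purified plasma Z-AAT (20 nM) preincubated with compounds 1 h at room temperature, then 3 nM human neutrophil elastase added in PBS + 0.01% BRIJ35 for 30 min to form suicide complex. Residual elastase activity read immediately by fluorescence after adding 300 μM MeOSuc-AAPV-AMC substrate solution.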

Sequence of purified Z-AAT protein from human plasma (P01009 25-418 E366K limits assumed): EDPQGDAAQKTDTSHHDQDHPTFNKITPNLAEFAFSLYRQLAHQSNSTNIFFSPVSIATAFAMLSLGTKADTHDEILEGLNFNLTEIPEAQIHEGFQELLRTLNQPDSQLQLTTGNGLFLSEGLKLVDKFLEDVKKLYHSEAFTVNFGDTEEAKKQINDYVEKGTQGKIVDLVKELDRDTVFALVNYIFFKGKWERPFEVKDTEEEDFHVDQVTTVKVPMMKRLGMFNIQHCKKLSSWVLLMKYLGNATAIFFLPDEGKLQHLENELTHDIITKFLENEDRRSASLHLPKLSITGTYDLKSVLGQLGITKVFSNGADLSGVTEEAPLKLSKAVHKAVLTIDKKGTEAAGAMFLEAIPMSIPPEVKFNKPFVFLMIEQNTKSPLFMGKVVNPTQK
Sequence of NL20 human bronchial epithelial cells expressing human Z-AAT (P01009 25-418 E366K limits assumed): as above

`Cc1cc(-n2c(C(C)C)c([C@H]3C[C@@H]3C(=O)O)c3cc(O)ccc32)ccc1F` [Compound 134] gave an EC50 [1] of 500 to 2000 nM and an IC50 [2] greater than 5000 nM.

`Cc1cc(-n2c(C(C)C)c([C@@H]3C[C@H]3C(=O)O)c3cc(O)ccc32)ccc1F` [Compound 135] gave an EC50 [1] greater than 2000 nM and an IC50 [2] greater than 30000 nM.

`O=C(O)[C@H]1CC[C@H](c2c(C3CCOCC3)n(-c3ccc(F)c(F)c3)c3ccc(O)cc32)CC1` [Compound 137] was tested, and the EC50 [1] was greater than 2000 nM and the IC50 [2] was greater than 30000 nM.

Compound `O=C(O)[C@H]1CC[C@@H](c2c(C3CCOCC3)n(-c3ccc(F)c(F)c3)c3ccc(O)cc32)CC1` [Compound 138] has an EC50 [1] greater than 2000 nM and an IC50 [2] greater than 30000 nM.

For `Cc1cc(-n2c(C(F)(F)F)c([C@H]3C[C@](C)(C(=O)O)C3)c3cc(O)ccc32)ccc1F` [Compound 139, trans-3-(1-(4-fluoro-3-methylphenyl)-5-hydroxy-2-(trifluoromethyl)-1H-indol-3-yl)-1-methylcyclobutane-1-carboxylic acid], the EC50 [1] was 500 to 2000 nM and the IC50 [2] was greater than 5000 nM.

`Cc1cc(-n2c(C(F)(F)F)c(C3CC4(CC(C(=O)O)C4)C3)c3cc(O)ccc32)ccc1F` (stereo not drawn) [Compound 140, 6-(1-(4-fluoro-3-methylphenyl)-5-hydroxy-2-(trifluoromethyl)-1H-indol-3-yl)spiro[3.3]heptane-2-carboxylic acid] gave an EC50 [1] of 500 to 2000 nM and an IC50 [2] greater than 5000 nM.

Compound `CC(C)c1c([C@H]2C[C@H](C(=O)O)C2)c2cc(O)ccc2n1-c1ccc(F)c(F)c1` [Compound 141, trans-3-(1-(3,4-difluorophenyl)-5-hydroxy-2-isopropyl-1H-indol-3-yl)cyclobutane-1-carboxylic acid] has an EC50 [1] of 500 to 2000 nM and an IC50 [2] greater than 5000 nM.

Work on `CC(C)c1c([C@H]2C[C@@H](C(=O)O)C2)c2cc(O)ccc2n1-c1ccc(F)c(F)c1` [Compound 142, cis-3-(1-(3,4-difluorophenyl)-5-hydroxy-2-isopropyl-1H-indol-3-yl)cyclobutane-1-carboxylic acid] yielded an EC50 [1] greater than 2000 nM and an IC50 [2] greater than 30000 nM.

Compound `Cc1cc(-n2c(C3CCOCC3)c([C@H]3C[C@@H](C(=O)O)C3)c3cc(O)ccc32)ccn1` [Compound 143] has an EC50 [1] greater than 2000 nM and an IC50 [2] greater than 30000 nM.

With `Cc1cc(-n2c(C(C)C)c([C@H]3C[C@@H](C(=O)O)C3)c3cc(O)ccc32)ccn1` [Compound 144] the EC50 [1] was greater than 2000 nM and the IC50 [2] was greater than 30000 nM.

In the case of `Cc1cc(-n2c(C(C)C)c([C@H]3C[C@H](C(=O)O)C3)c3cc(O)ccc32)ccc1F` [Compound 145], the EC50 [1] is reported as 500 to 2000 nM and the IC50 [2] is reported as greater than 5000 nM.

Compound `Cc1cc(-n2c(C(C)C)c([C@H]3C[C@@H](C(=O)O)C3)c3cc(O)ccc32)ccc1F` [Compound 146] has an EC50 [1] of 500 to 2000 nM and an IC50 [2] greater than 30000 nM.

In the case of `Cc1cc(-n2c(C(C)C)c(C3CN(CC(=O)O)C3)c3cc(O)ccc32)ccc1F` [Compound 147], the EC50 [1] is reported as greater than 2000 nM and the IC50 [2] is reported as greater than 30000 nM.

In the case of `Cc1cc(-n2c(C(C)C)c(C3CC4(C3)CC(F)(C(=O)O)C4)c3cc(O)ccc32)ccc1F` (stereo not drawn) [Compound 148, 2-fluoro-6-(1-(4-fluoro-3-methylphenyl)-5-hydroxy-2-isopropyl-1H-indol-3-yl)spiro[3.3]heptane-2-carboxylic acid], the EC50 [1] is reported as less than 500 nM and the IC50 [2] is reported as less than 2000 nM.

For `Cc1cc(-n2c(C(C)C)c(C3CC4(C3)CC(F)(C(=O)O)C4)c3cc(O)ccc32)ccc1F` (stereo not drawn) [Compound 149, 2-fluoro-6-(1-(4-fluoro-3-methylphenyl)-5-hydroxy-2-isopropyl-1H-indol-3-yl)spiro[3.3]heptane-2-carboxylic acid], the EC50 [1] was 500 to 2000 nM and the IC50 [2] was 2000 to 5000 nM.

Compound `COC(C)(Cc1c(C(C)C)n(-c2ccc(F)c(C)c2)c2ccc(O)cc12)C(=O)O` (stereo not drawn) [Compound 151, 3-(1-(4-fluoro-3-methylphenyl)-5-hydroxy-2-isopropyl-1H-indol-3-yl)-2-methoxy-2-methylpropanoic acid] has an EC50 [1] greater than 2000 nM and an IC50 [2] greater than 30000 nM.

`Cc1cc(-n2c(C(C)C)c(CC(C)(O)C(=O)O)c3cc(O)ccc32)ccc1F` (stereo not drawn) [Compound 152, 3-[1-(4-fluoro-3-methyl-phenyl)-5-hydroxy-2-isopropyl-indol-3-yl]-2-hydroxy-2-methyl-propanoic acid] showed an EC50 [1] greater than 2000 nM and an IC50 [2] greater than 30000 nM.

`Cc1cc(-n2c(C(C)C)c(CC(=O)O)c3cc(O)ccc32)ccc1F` [Compound 153, 2-(1-(4-fluoro-3-methylphenyl)-5-hydroxy-2-isopropyl-1H-indol-3-yl)acetic acid] was tested, and the EC50 [1] was greater than 2000 nM and the IC50 [2] was greater than 30000 nM.

For `Cc1cc(-n2c(C3CC3)c(C(Cc3ccccc3)C(=O)O)c3cc(O)ccc32)ccc1F` (stereo not drawn) [Compound 156, 2-(2-cyclopropyl-1-(4-fluoro-3-methylphenyl)-5-hydroxy-1H-indol-3-yl)-3-phenylpropanoic acid], the EC50 [1] was greater than 2000 nM and the IC50 [2] was greater than 30000 nM.

Work on `CCC(C(=O)O)c1c(C)n(-c2ccc(F)c(C)c2)c2ccc(O)cc12` (stereo not drawn) [Compound 158] yielded an EC50 [1] greater than 2000 nM and an IC50 [2] greater than 30000 nM.

Compound `Cc1cc(-n2c(C)c(C(C)C(=O)O)c3cc(O)ccc32)ccc1F` (stereo not drawn) [Compound 159] has an EC50 [1] greater than 2000 nM and an IC50 [2] greater than 30000 nM.

`Cc1cc(-n2c(C3CC3)c(CC(=O)O)c3cc(O)ccc32)ccc1F` [Compound 160] gave an EC50 [1] greater than 2000 nM and an IC50 [2] greater than 30000 nM.

For `Cc1cc(-n2c(C)c(CC(=O)O)c3cc(O)ccc32)ccn1` [Compound 161], the EC50 [1] was greater than 2000 nM and the IC50 [2] was greater than 30000 nM.

In the case of `Cc1cc(-n2c(C)c(CC(=O)O)c3cc(O)ccc32)ccc1F` [Compound 162], the EC50 [1] is reported as greater than 2000 nM and the IC50 [2] is reported as greater than 30000 nM.

In the case of `Cc1cc(-n2c(C(C)C)c(CCC(=O)O)c3cc(O)c(F)cc32)ccc1F` [Compound 163, 3-(6-fluoro-1-(4-fluoro-3-methylphenyl)-5-hydroxy-2-isopropyl-1H-indol-3-yl)propanoic acid], the EC50 [1] is reported as less than 500 nM and the IC50 [2] is reported as greater than 30000 nM.

`COCC(C)(C)c1c(-c2ccc(C(=O)O)cc2)c2cc(O)ccc2n1-c1ccc(F)cc1` [Compound 164, 4-(1-(4-fluorophenyl)-5-hydroxy-2-(1-methoxy-2-methylpropan-2-yl)-1H-indol-3-yl)benzoic acid] was tested, and the EC50 [1] was less than 500 nM and the IC50 [2] was less than 2000 nM.

Compound `CC(C)(CC#N)c1c(-c2ccc(C(=O)O)cc2)c2cc(O)ccc2n1-c1ccc(F)cc1` [Compound 165, 4-(2-(1-cyano-2-methylpropan-2-yl)-1-(4-fluorophenyl)-5-hydroxy-1H-indol-3-yl)benzoic acid] has an EC50 [1] of 500 to 2000 nM and an IC50 [2] of less than 2000 nM.

`Cc1cc(-n2c(C3CCOCC3)c(-c3ccc(C(=O)O)cc3)c3cc(O)ccc32)ccc1F` [Compound 166, 4-(1-(4-fluoro-3-methylphenyl)-5-hydroxy-2-(tetrahydro-2H-pyran-4-yl)-1H-indol-3-yl)benzoic acid] was tested, and the EC50 [1] was greater than 2000 nM and the IC50 [2] was greater than 30000 nM.

Work on `Cc1cc(-n2c(C(C)C)c(-c3cccc(C(=O)O)c3)c3cc(O)ccc32)ccc1F` [Compound 168] yielded an EC50 [1] of less than 500 nM and an IC50 [2] of 2000 to 5000 nM.

`Cc1cc(-n2c(C(C)C)c(-c3ccccc3C(=O)O)c3cc(O)ccc32)ccc1F` [Compound 169] was tested, and the EC50 [1] was greater than 2000 nM and the IC50 [2] was greater than 30000 nM.

Compound `Cc1cc(-n2c(C(C)C)c(-c3cncc(C(=O)O)c3)c3cc(O)ccc32)ccc1F` [Compound 172] has an EC50 [1] of 500 to 2000 nM and an IC50 [2] of 2000 to 5000 nM.

`Cc1nccc(-n2c(C(C)C)c(-c3ccc(C(=O)O)cc3)c3cc(O)ccc32)n1` [Compound 174] gave an EC50 [1] greater than 2000 nM and an IC50 [2] greater than 30000 nM.

With `Cc1cc(-n2c(C#N)c(-c3ccc(C(=O)O)cc3)c3cc(O)ccc32)ccc1F` [Compound 175] the EC50 [1] was 500 to 2000 nM and the IC50 [2] was greater than 30000 nM.

`Cc1cc(-n2c(C(C)C)c(C(C)CC(=O)O)c3cc(O)ccc32)ccc1F` (stereo not drawn) [Compound 176] gave an EC50 [1] of 500 to 2000 nM and an IC50 [2] greater than 30000 nM.

With `COCC(C)(C)c1c(-c2ccc(C(=O)O)cc2)c2cc(O)c(Cl)cc2n1-c1ccc(F)cc1` [Compound 177, 4-(6-chloro-1-(4-fluorophenyl)-5-hydroxy-2-(1-methoxy-2-methylpropan-2-yl)-1H-indol-3-yl)benzoic acid] the EC50 [1] was less than 500 nM and the IC50 [2] was less than 2000 nM.

Work on `COCC(C)(C)c1c(-c2ccc(C(=O)O)cc2)c2c(Cl)c(O)ccc2n1-c1ccc(F)cc1` [Compound 178, 4-[4-chloro-1-(4-fluorophenyl)-5-hydroxy-2-(2-methoxy-1,1-dimethyl-ethyl)indol-3-yl]benzoic acid] yielded an EC50 [1] of less than 500 nM and an IC50 [2] of less than 2000 nM.

`Cc1cc(-n2c(C(C)C)c(-c3cc(C(=O)O)[nH]n3)c3cc(O)ccc32)ccc1F` [Compound 179, 3-[1-(4-fluoro-3-methyl-phenyl)-5-hydroxy-2-isopropyl-indol-3-yl]-1H-pyrazole-5-carboxylic acid] was tested, and the EC50 [1] was greater than 2000 nM and the IC50 [2] was greater than 30000 nM.

Compound `CC(C)c1c(-c2cccc(C(=O)O)c2)c2cc(O)ccc2n1C1CC(F)(F)C1` [Compound 180, 3-(1-(3,3-difluorocyclobutyl)-5-hydroxy-2-isopropyl-1H-indol-3-yl)benzoic acid] has an EC50 [1] greater than 2000 nM and an IC50 [2] greater than 30000 nM.

`Cc1cc(-n2c(C(C)C)c(/C=C/C(=O)O)c3cc(O)c(F)cc32)ccc1F` [Compound 181, (E)-3-(6-fluoro-1-(4-fluoro-3-methylphenyl)-5-hydroxy-2-isopropyl-1H-indol-3-yl)acrylic acid] showed an EC50 [1] greater than 2000 nM and an IC50 [2] greater than 5000 nM.

For `Cc1c(C2(C#N)CC2)c2cc(O)ccc2n1-c1ccc(F)cc1` [Compound 184, 1-(1-(4-fluorophenyl)-5-hydroxy-2-methyl-1H-indol-3-yl)cyclopropane-1-carbonitrile], the EC50 [1] was greater than 2000 nM and the IC50 [2] was greater than 5000 nM.

`CC(C)c1c(C#N)c2cc(O)ccc2n1-c1ccc(F)cc1` [Compound 185, 1-(4-fluorophenyl)-5-hydroxy-2-isopropyl-1H-indole-3-carbonitrile] gave an EC50 [1] of less than 500 nM and an IC50 [2] greater than 30000 nM.

Work on `CC(C)(C)c1c(C#N)c2cc(O)ccc2n1-c1ccc(F)cc1` [Compound 186] yielded an EC50 [1] of less than 500 nM and an IC50 [2] greater than 5000 nM.
